Biological target: MGAT2 Human (Homo sapiens (Human), UniProt Q3SYC2)
Experiment: MGAT2 Human IC50
Format: biochemical

Sequence of MGAT2 Human (Q3SYC2 whole entry): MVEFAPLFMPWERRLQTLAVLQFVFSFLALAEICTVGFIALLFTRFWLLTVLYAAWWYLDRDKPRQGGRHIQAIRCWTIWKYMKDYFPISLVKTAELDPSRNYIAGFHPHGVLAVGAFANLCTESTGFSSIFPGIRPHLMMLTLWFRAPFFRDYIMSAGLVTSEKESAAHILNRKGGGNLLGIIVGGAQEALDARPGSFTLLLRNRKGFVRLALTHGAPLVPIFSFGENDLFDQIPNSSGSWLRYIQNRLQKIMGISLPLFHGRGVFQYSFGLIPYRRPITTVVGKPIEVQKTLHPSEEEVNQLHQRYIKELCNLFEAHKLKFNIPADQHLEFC

SMILES | IC50 [nM]
C[C@H](c1ccc(OCC(F)F)nc1)N1CCc2ccc(S(=O)(=O)Nc3noc(C4CC4)n3)cc2C1 [Example 23, (R)-5-cyclopropyl-3-(2-(1-(6-(2,2-difluoroethoxy)pyridin-3-yl)ethyl)-1,2,3,4-tetrahydroisoquinoline-7-sulfonamido)-1,2,4-oxadiazol-2-ium 2,2,2-trifluoroacetate] | 8.2
C[C@H](c1cnc(OCC(F)(F)F)nc1)N1CCc2ccc(S(=O)(=O)Nc3noc(C(C)(C)C)c3-c3cccc(F)c3)cc2C1 [Example 11, (R)—N-(5-(tert-butyl)-4-(3-fluorophenyl)isoxazol-3-yl)-2-(1-(2-(2,2,2-trifluoroethoxy)pyrimidin-5-yl)ethyl)-1,2,3,4-tetrahydroisoquinoline-7-sulfonamide] | 20
CCNC(=O)c1noc(NS(=O)(=O)c2ccc3c(c2)CN([C@H](C)c2cc(F)cc(F)c2)CC3)n1 [Example 53] | 7.1
C[C@H](c1cc(F)cc(F)c1)N1CCc2ccc(S(=O)(=O)Nc3nc(C(=O)N(C)C)no3)cc2C1 [Example 56] | 5.7
C[C@H](c1ccc(OCC(F)(F)F)nc1)N1CCc2ccc(S(=O)(=O)Nc3cc(C(C)(C)C)on3)cc2C1 [Example 9, (R)—N-(5-(tert-butyl)isoxazol-3-yl)-2-(1-(6-(2,2,2-trifluoroethoxy)pyridin-3-yl)ethyl)-1,2,3,4-tetrahydroisoquinoline-7-sulfonamide] | 11
CCc1ccc(CN2CCc3ccc(S(=O)(=O)Nc4noc(C(C)(C)C)c4CC)cc3C2)cn1 [Example 40, N-(5-(tert-butyl)-4-ethylisoxazol-3-yl)-2-((6-ethylpyridin-3-yl)methyl)-1,2,3,4-tetrahydroisoquinoline-7-sulfonamide] | 15
C[C@H](c1ccc(OCC(F)(F)F)nc1)N1CCc2ccc(S(=O)(=O)Nc3noc(C(C)(C)C)c3CO)cc2C1 [Example 32, 7-(N-(5-(tert-butyl)-4-(hydroxymethyl)isoxazol-3-yl)sulfamoyl)-2-((R)-1-(6-(2,2,2-trifluoroethoxy)pyridin-3-yl)ethyl)-1,2,3,4-tetrahydroisoquinolin-2-ium 2,2,2-trifluoroacetate] | 19.8
C[C@H](c1ccccc1)N1CCc2ccc(S(=O)(=O)Nc3cc(C(C)(C)C)on3)cc2C1 [Example 3, (R)—N-(5-(tert-butyl)isoxazol-3-yl)-2-(1-phenylethyl)-1,2,3,4-tetrahydroisoquinoline-7-sulfonamide] | 9
C[C@H](c1cnc(OCC(F)F)cn1)N1CCc2ccc(S(=O)(=O)Nc3noc(C4CC4)n3)cc2C1 [Example 24, (R)-5-cyclopropyl-3-(2-(1-(5-(2,2-difluoroethoxy)pyrazin-2-yl)ethyl)-1,2,3,4-tetrahydroisoquinoline-7-sulfonamido)-1,2,4-oxadiazol-2-ium 2,2,2-trifluoroacetate] | 19.7
CCCc1cnc(NS(=O)(=O)c2ccc3c(c2)CN([C@H](C)c2cc(F)cc(F)c2)CC3)cn1 [Example 38, (R)-2-(1-(3,5-difluorophenyl)ethyl)-N-(5-propylpyrazin-2-yl)-1,2,3,4-tetrahydroisoquinoline-7-sulfonamide] | 6
C[C@H](c1ccc(OCC2CC(F)(F)C2)nc1)N1CCc2ccc(S(=O)(=O)Nc3noc(C4CC4)n3)cc2C1 [Example 26, (R)-5-cyclopropyl-3-(2-(1-(6-((3,3-difluorocyclobutyl)methoxy)pyridin-3-yl)ethyl)-1,2,3,4-tetrahydroisoquinoline-7-sulfonamido)-1,2,4-oxadiazol-2-ium 2,2,2-trifluoroacetate] | 20
Cc1c(NS(=O)(=O)c2ccc3c(c2)CN([C@H](C)c2ccc(OCC(F)(F)F)cc2)CC3)noc1C(C)(C)C [Example 29, 7-(N-(5-(tert-butyl)-4-methylisoxazol-3-yl)sulfamoyl)-2-((R)-1-(4-(2,2,2-trifluoroethoxy)phenyl)ethyl)-1,2,3,4-tetrahydroisoquinolin-2-ium 2,2,2-trifluoroacetate] | 9.5
CC(C)Nc1cnc(NS(=O)(=O)c2ccc3c(c2)CN([C@H](C)c2ccc(OCC(F)(F)F)nc2)CC3)cn1 [Example 47, 7-(N-(5-(isopropylamino)pyrazin-2-yl)sulfamoyl)-2-((R)-1-(6-(2,2,2-trifluoroethoxy)pyridin-3-yl)ethyl)-1,2,3,4-tetrahydroisoquinolin-2-ium 2,2,2-trifluoroacetate] | 13.9
Cc1c(NS(=O)(=O)c2ccc3c(c2)CN([C@H](C)c2ccc(OCC4CC(F)(F)C4)nc2)CC3)noc1C(C)(C)C [Example 28, 7-(N-(5-(tert-butyl)-4-methylisoxazol-3-yl)sulfamoyl)-2-((R)-1-(6-((3,3-difluorocyclobutyl)methoxy)pyridin-3-yl)ethyl)-1,2,3,4-tetrahydroisoquinolin-2-ium 2,2,2-trifluoroacetate] | 8.5
CCCc1ccc([C@@H](C)N2CCc3ccc(S(=O)(=O)Nc4noc(C(C)(C)C)c4Br)cc3C2)cn1 [Example 43, (R)—N-(4-bromo-5-(tert-butyl)isoxazol-3-yl)-2-(1-(6-propylpyridin-3-yl)ethyl)-1,2,3,4-tetrahydroisoquinoline-7-sulfonamide] | 1.6
CNC(=O)c1c(NS(=O)(=O)c2ccc3c(c2)CN([C@H](C)c2cc(F)cc(F)c2)CC3)noc1C(C)(C)C [Example 34, (R)-5-(tert-butyl)-3-(2-(1-(3,5-difluorophenyl)ethyl)-1,2,3,4-tetrahydroisoquinoline-7-sulfonamido)-N-methylisoxazole-4-carboxamide] | 6.2
CCOc1cnc([C@@H](C)N2CCc3ccc(S(=O)(=O)Nc4noc(C(C)(C)C)c4Cl)cc3C2)cn1 [Example 35, (R)—N-(5-(tert-Butyl)-4-chloroisoxazol-3-yl)-2-(1-(5-ethoxypyrazin-2-yl)ethyl)-1,2,3,4-tetrahydroisoquinoline-7-sulfonamide] | 8.3
CCCc1c(NS(=O)(=O)c2ccc3c(c2)CN(Cc2ccc(CC)nc2)CC3)noc1C(C)(C)C [Example 39, N-(5-(tert-butyl)-4-propylisoxazol-3-yl)-2-((6-ethylpyridin-3-yl)methyl)-1,2,3,4-tetrahydroisoquinoline-7-sulfonamide] | 11
C[C@H](c1cc(F)cc(F)c1)N1CCc2ccc(S(=O)(=O)Nc3nc(C(=O)N4CCC4)no3)cc2C1 [Example 55] | 3.7
C[C@H](c1ccc(OCC(F)(F)F)nc1)N1CCc2ccc(S(=O)(=O)Nc3ccc(C(C)(C)C)nn3)cc2C1 [Example 50, 7-(N-(6-(tert-butyl)pyridazin-3-yl)sulfamoyl)-2-((R)-1-(6-(2,2,2-trifluoroethoxy)pyridin-3-yl)ethyl)-1,2,3,4-tetrahydroisoquinolin-2-ium 2,2,2-trifluoroacetate] | 3.8
C[C@H](c1cnc(OCC(F)(F)F)nc1)N1CCc2ccc(S(=O)(=O)Nc3noc(C(C)(C)C)c3Br)cc2C1 [Example 10, (R)—N-(4-bromo-5-(tert-butyl)isoxazol-3-yl)-2-(1-(2-(2,2,2-trifluoroethoxy)pyrimidin-5-yl)ethyl)-1,2,3,4-tetrahydroisoquinoline-7-sulfonamide] | 17
Cc1onc(NS(=O)(=O)c2ccc3c(c2)CN([C@H](C)c2ccc(OCC(F)(F)F)nc2)CC3)c1-c1cnn(C)c1 [Example 17, (R)—N-(5-methyl-4-(1-methyl-1H-pyrazol-4-yl)isoxazol-3-yl)-2-(1-(6-(2,2,2-trifluoroethoxy)pyridin-3-yl)ethyl)-1,2,3,4-tetrahydroisoquinoline-7-sulfonamide] | 24
Cc1c(NS(=O)(=O)c2ccc3c(c2)CN([C@H](C)c2cnc(OCC(F)(F)F)cn2)CC3)noc1C(C)(C)C [Example 14, (R)—N-(5-(tert-butyl)-4-methylisoxazol-3-yl)-2-(1-(5-(2,2,2-trifluoroethoxy)pyrazin-2-yl)ethyl)-1,2,3,4-tetrahydroisoquinoline-7-sulfonamide] | 3.1
C[C@H](c1ccc(OCC(F)(F)F)nc1)N1CCc2ccc(S(=O)(=O)Nc3noc(C(C)(C)C)c3Cl)cc2C1 [Example 13, (R)—N-(5-(tert-butyl)-4-chloroisoxazol-3-yl)-2-(1-(6-(2,2,2-trifluoroethoxy)pyridin-3-yl)ethyl)-1,2,3,4-tetrahydroisoquinoline-7-sulfonamide] | 16
CCOc1cnc([C@@H](C)N2CCc3ccc(S(=O)(=O)Nc4noc(C(C)(C)C)c4C)cc3C2)cn1 [Example 36, (R)—N-(5-(tert-butyl)-4-methylisoxazol-3-yl)-2-(1-(5-ethoxypyrazin-2-yl)ethyl)-1,2,3,4-tetrahydroisoquinoline-7-sulfonamide] | 3.5
Cc1c(NS(=O)(=O)c2ccc3c(c2)CN([C@H](C)c2ccc(OCC(F)(F)F)nc2)CC3)noc1C(C)(C)C [Example 5, (R)—N-(5-(tert-butyl)-4-methylisoxazol-3-yl)-2-(1-(6-(2,2,2-trifluoroethoxy)pyridin-3-yl)ethyl)-1,2,3,4-tetrahydroisoquinoline-7-sulfonamide] | 4.5
COCCOc1ccc([C@@H](C)N2CCc3ccc(S(=O)(=O)Nc4cc(C(C)(C)C)on4)cc3C2)cn1 [Example 31, 7-(N-(5-(tert-butyl)isoxazol-3-yl)sulfamoyl)-2-((R)-1-(6-(2-methoxyethoxy)pyridin-3-yl)ethyl)-1,2,3,4-tetrahydroisoquinolin-2-ium 2,2,2-trifluoroacetate] | 17.2
C[C@H](c1ccc(OCC(F)(F)F)nc1)N1CCc2ccc(S(=O)(=O)Nc3cc(C(C)(C)O)on3)cc2C1 [Example 18, (R)—N-(5-(2-hydroxypropan-2-yl)isoxazol-3-yl)-2-(1-(6-(2,2,2-trifluoroethoxy)pyridin-3-yl)ethyl)-1,2,3,4-tetrahydroisoquinoline-7-sulfonamide] | 23
CCc1ccc([C@@H](C)N2CCc3ccc(S(=O)(=O)Nc4noc(C(C)(C)C)c4C)cc3C2)cn1 [Example 42, (R)—N-(5-(tert-butyl)-4-methylisoxazol-3-yl)-2-(1-(6-ethylpyridin-3-yl)ethyl)-1,2,3,4-tetrahydroisoquinoline-7-sulfonamide] | 8.2
C[C@H](c1ccc(OCC(F)F)nc1)N1CCc2ccc(S(=O)(=O)Nc3cc(C(C)(C)C)on3)cc2C1 [Example 22] | 6.4
